Conditions: 313.14 K, Liquid, Vibrating tube method

CCCCCCCCCC [decane]
Conditions	mass density [kg/m3]
12060 kPa	724.5
12090 kPa	724.6
12118 kPa	724.7
12149 kPa	724.5
12173 kPa	724.7
12197 kPa	724.7
12233 kPa	724.6
12257 kPa	724.7
12287 kPa	724.9
12324 kPa	724.8
12341 kPa	724.8
12365 kPa	724.9
12382 kPa	724.9
12406 kPa	724.9
12434 kPa	724.8
12459 kPa	724.9
12483 kPa	724.9
12501 kPa	724.9
12523 kPa	725
12552 kPa	725
12574 kPa	725
12596 kPa	724.9
12624 kPa	724.9
12650 kPa	725
12672 kPa	725.1
12695 kPa	725.2
12721 kPa	725.1
12751 kPa	725.1
12774 kPa	725.1
12807 kPa	725.3
12834 kPa	725.2
12857 kPa	725.2
12882 kPa	725.3
12901 kPa	725.2
12923 kPa	725.3
12948 kPa	725.2
12973 kPa	725.3
12992 kPa	725.3
13015 kPa	725.3
13037 kPa	725.5
13059 kPa	725.3
13081 kPa	725.3
13107 kPa	725.5
13127 kPa	725.5
13151 kPa	725.5
13171 kPa	725.4
13187 kPa	725.6
13210 kPa	725.5
13230 kPa	725.5
13253 kPa	725.4
13276 kPa	725.5
13309 kPa	725.5
13333 kPa	725.4
13357 kPa	725.5
13384 kPa	725.7
13405 kPa	725.6
13434 kPa	725.7
13451 kPa	725.8
13475 kPa	725.6
13499 kPa	725.8
13520 kPa	725.7
13538 kPa	725.7
13562 kPa	725.7
13583 kPa	725.7
13607 kPa	725.8
13636 kPa	725.8
13654 kPa	725.8
13682 kPa	726
13714 kPa	725.9
13743 kPa	725.9
13768 kPa	725.9
13797 kPa	725.9
13830 kPa	725.9
13848 kPa	726
13878 kPa	726
13900 kPa	726
13932 kPa	726
13970 kPa	726.1
13987 kPa	726.1
14008 kPa	726.2
14029 kPa	726.1
14050 kPa	726.2
14071 kPa	726.1
14091 kPa	726.2
14119 kPa	726.1
14140 kPa	726.1
14168 kPa	726.2
14196 kPa	726.3
14224 kPa	726.2
14253 kPa	726.3
14277 kPa	726.4
14302 kPa	726.3
14328 kPa	726.3
14353 kPa	726.4
14371 kPa	726.3
14405 kPa	726.4
14426 kPa	726.3
14449 kPa	726.4
14485 kPa	726.5
14511 kPa	726.5
14540 kPa	726.5
14570 kPa	726.5
14600 kPa	726.4
14630 kPa	726.5
14663 kPa	726.6
14693 kPa	726.7
14719 kPa	726.7
14750 kPa	726.6
14780 kPa	726.7
14811 kPa	726.8
14830 kPa	726.7
14861 kPa	726.7
14892 kPa	726.8
14919 kPa	726.8
14944 kPa	726.8
14964 kPa	726.8
14984 kPa	726.8
15008 kPa	726.8
15036 kPa	726.9
15068 kPa	726.9
15100 kPa	727
15125 kPa	727
15154 kPa	726.9
15190 kPa	727
15219 kPa	727
15248 kPa	727
15273 kPa	727.1
15314 kPa	727.1
15343 kPa	727.2
15372 kPa	727.2
15397 kPa	727
15423 kPa	727.1
15441 kPa	727.2
15467 kPa	727.3
15485 kPa	727.2
15504 kPa	727.2
15526 kPa	727.2

From the NIST ThermoML archive (doi:10.1021/je800110r)
